Molecules are shown by their SMILES.

For data set [1], the system named is IL-6. As to the kind of experiment: IL-6 release, UV-A-induced photoaging in human dermal fibroblasts (ELISA). Conditions: UV-A 12.5 J/cm^2 (315-400 nm). The format is cell-based. As to the method: Primary dermal fibroblasts cells of human origin were cultured in vitro using standard conditions (37° C., 95% v/v air, 5% v/v CO2). Primary dermal fibroblasts from neonatal donor were used from human origin and purchased from Thermo-Fisher (Cat No. C0045C). […] Cells were cultured until the second passage and then acclimated for 48 hours before UVA irradiation and dosing procedures conducted in 24-well plates. On Day 3, test materials were dosed to cell culture media and pre-incubated for 6 hours. Treatment media was then removed and replaced with phosphate buffer saline (PBS) without test materials and Ultraviolet-A (UV-A) was irradiated at 12.5 J/cm^2 using FS-20/T-12 bulbs (315-400 nm). […]
An Interleukin-6 assay was used to evaluate the anti-inflammatory activity of KLS-13022 formulated in ethanol and applied in vitro to cells irradiated with Ultraviolet-A (UV-A)-induced photoaging (Wlascheck et al., 1994) in human dermal fibroblasts (HDFs). […] IL-6 levels were quantified by enzyme-linked immunosorbent assay (ELISA) after inflammatory induction and incubation with test and control materials. Interleukin-6 (IL-6) levels were assessed from cell culture media supernatants using BD Biosciences OptEIA™ Human IL-6 ELISA Set kit (Cat. No. 555220). according to the manufacture's specifications. […]
A general note: In an ELISA, binding on a coated surface is turned into a signal by an enzyme label.

Data set [2] deals with human dermal microvascular endothelial cells. The class given is cell-based. Conditions: 6 h. On the procedure:
Dermal Microvascular endothelial cells of human origin were cultured in vitro using standard conditions (37° C., 95% v/v air, 5% v/v CO2). Human cells were selected as relevant to cell types within skin tissues for this development program. Cell culture methods are commonly used in non-clinical studies conducted on pharmaceutical products. […] Cells were cultured until the third and fourth passage and then acclimated for 24 hours before Nickel induction and dosing procedures. Cell treatment groups were identified using appropriate 96-well plates. The test and control articles were administered to medium containing 1 mM NiSO4 in triplicates. The negative control group received vehicle-only (0.1% v/v final) dose. A fixed 0.1 μL/well from 1000× stock dose volume was administered to 100 μL of media to each cell culture well on Day 2 and incubated for 6 hours at 37 degrees. These cell cultures were also utilized to determine the concentrations of test agent that were non-toxic after 24 hours of incubation. Cell Viability assays were conducted using MTS reduction assays (Promega) diluted 1:5 in DMEM+10% FBS media as specified by the manufacturer. Absorbance was measured at 490 nm using plate reader and cell viability was calculated as a percent of control. This assay was done along with all culture systems that were utilized to study cytokine release. […]

Data set [3] is classed as in vitro ADME, porcine. As to the method:
Percutaneous absorption (Franz cell). For these studies, porcine ear skin (n=3; 1.5 in^2) obtained from Animal Technologies, Inc. (Tyler, T X) were utilized, Skins were thawed for 30 min at room temperature. After thawing, skin was placed over receptor compartment of the unjacketed Franz cell chamber with stir bar obtained from Permegear and covered with the donor compartment. The clamp was then placed to hold the cell together. The receptor compartment was filled with 12 mL of 1M PBS buffer+4% BSA and 0.1% sodium azide through the sampling port using a syringe. Franz cell was placed on a stir plate at ˜600 RPM and heated till the buffer reached 37° C. 400 μL of 3H—H2O (˜1.5 million counts) was then placed on the membrane for 5 min. […] After 30 min, 250 μL of the receptor buffer was removed in triplicate and counted to check the integrity of the skin (>0.4 μl/cm^2 was considered acceptable). […] Extraction and homogenization were performed to quantify the amount of formulation remaining in the epidermis and dermis. […] The concentration of KLS-13022 was measured by liquid chromatography coupled with tandem mass spectrometry (LC/MS/MS). […] The analytes and internal standard were detected using an Applied Biosystem API-3000 mass spectrometer equipped with a Turbo-Ion Spray (Electrospray, ESI) source that was operated in multiple reaction monitoring mode (MRM) under positive ion mode.

One may read the IC50 as the point on the concentration scale where inhibition reaches its midpoint. Take `C=C(C)[C@@H]1CCC(C)=C[C@H]1c1c(O)cc(CC2CN(C(=O)OCC)C2)cc1O` [KLS-13022, ethyl 3-(3,5-dihydroxy-4-((1R,6R)-3-methyl-6-(prop-1-en-2-yl)cyclohex-2-enyl)benzyl)azetidine-1-carboxylate]: the IC50 in data set [1] (Fibroblast, light or radiation study, read-out: IC50 of IL-6 inhibition) was determined as 900 nM. Besides, the “maximum IL-6 inhibition” value in data set [1] amounted to 95%. In data set [2], this molecule came in with a non-toxic concentration range of at most 12 µM. The “penetration into receptor solution” value in data set [3] was “not into the receptor solution”. The “amount in epidermis/dermis (viable skin)” value in data set [3] (pig, 24 h, 1 % w/v) is 0.324%.

For the origin of these results see US20220409578A1, “FUNCTIONALIZED 1,3-BENZENE DIOLS AND THEIR METHOD OF USE FOR THE TREATMENT OF RADIATION DERMATITIS AND OTHER SKIN DISORDERS” (KANNALIFE SCIENCES, INC., priority 2019, published 2022).
